How the values were obtained:
MiaPaCa-2 cells [1] = assay: Measurement of intracellular NAD+ levels (cycling enzymatic assay); type: cell-based, human; design: dose or concentration left out as unconfirmed; settings: after 24 h
Protocol: Measurement of intracellular NAD^+ levels. MiaPaCa-2 cells were plated at a density of 6.5 × 10^4 cells/well in 12−well plates. After 24 h, cells were treated (or not) with the different compounds and cultured for a further 24 h. Cells were harvested and lysed in 0.1 mL 0.6 M perchloric acid. Intracellular NAD^+ levels were determined with a cycling enzymatic assay, as previously reported.
In order to confirm that the above-mentioned anti-proliferative effect of the new NAMPT inhibitors were associated with NAD^+ depletion, we evaluated the intracellular NAD^+ concentration (iNAD^+) in MiaPaCa-2 cells for all the compounds (at a fixed […] concentration). After 24 h, only the iminosugar-based inhibitors 22 (77%) and 29 (79%), as well as the non-carbohydrate analogue 42 (61%), led to significant depletion; the other compounds exerted an effect in the 0–10% range.

MiaPaCa-2 cells [2] = assay: as above; type: cell-based, human; settings: 24 h, 100 μM of inhibitor, SD < 20%
MiaPaCa-2 cells [3] = assay: Cell viability assay (SRB); type: cell-based; settings: Homo sapiens, MIA PaCa-2, MiaPaCa-2, 72 h
Protocol: Cell viability assay. MiaPaCa-2 cells (2 × 10^3/well) were plated in 96−well plates and left to adhere overnight. After 24 h the cells were treated with the inhibitors. Viability was determined after 72 h. The culture plates were fixed with cold 3% trichloroacetic acid at 4 °C for 30 min, washed with cold water and dried overnight. Finally, the plates were stained with 0.4% sulforodhamine B (SRB) in 1% acetic acid, washed four times with 1% acetic acid to remove unbound dye, dried overnight and then the stain was extracted with 10 mM Tris Base and the absorbance was read at 560 nm.
Then, the new compounds were tested in vitro for their anti-proliferative effect, using the human pancreatic cancer cell line MiaPaca-2 in the cytotoxicity assays (Table 1).

recombinant human NAMPT = biological target: T1, recombinant human NAMPT (Homo sapiens, UniProt P43490); assay: NAMPT inhibition (fluorometric NMN detection); type: biochemical; settings: NI = No inhibition at concentration < 1 mM, SD < 20%
T1 construct: purchased Abcam ab198090
T1 sequence (P43490 whole entry): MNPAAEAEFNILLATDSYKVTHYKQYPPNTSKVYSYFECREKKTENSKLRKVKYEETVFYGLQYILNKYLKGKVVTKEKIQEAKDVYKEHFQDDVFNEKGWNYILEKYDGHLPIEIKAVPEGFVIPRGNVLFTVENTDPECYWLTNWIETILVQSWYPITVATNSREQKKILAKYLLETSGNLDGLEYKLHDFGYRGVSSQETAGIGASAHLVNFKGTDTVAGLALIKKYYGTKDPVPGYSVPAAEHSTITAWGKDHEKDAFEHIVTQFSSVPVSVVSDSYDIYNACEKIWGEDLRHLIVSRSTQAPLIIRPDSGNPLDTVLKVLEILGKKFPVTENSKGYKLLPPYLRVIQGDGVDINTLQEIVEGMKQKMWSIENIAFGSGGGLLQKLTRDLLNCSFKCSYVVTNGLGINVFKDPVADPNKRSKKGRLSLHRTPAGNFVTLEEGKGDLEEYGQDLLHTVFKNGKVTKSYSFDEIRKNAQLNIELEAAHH

[4] = NI (footnote 3) = No inhibition at concentration < 400 μM, SD < 20%

Structure (SMILES)	IC50 (MiaPaCa-2 cells [3]; [4]) [µM]	IC50 (recombinant human NAMPT) [µM]	IC50 (MiaPaCa-2 cells [3]; NI (footnote 2) = No inhibition at concentration < 100 μM) [µM]	intracellular NAD+ depletion (MiaPaCa-2 cells [1]) [%]	iNAD+ Depletion (%) (MiaPaCa-2 cells [2])
O=C(NCc1ccc(C(=O)Nc2ccc([C@@H]3N[C@H](CO)[C@@H](O)[C@H]3O)cc2)cc1)c1ccccc1 [Compound 25]	> 400	> 1000			0
CC(C)(C)c1ccc(S(=O)(=O)NCc2ccc(C(=O)Nc3ccc([C@@H]4N[C@H](CO)[C@@H](O)[C@H]4O)cc3)cc2)cc1 [Compound 24]	> 400	549			9
CC(C)(C)c1ccc(S(=O)(=O)N2CCC(CCCC(=O)Nc3ccc([C@@H]4N[C@H](CO)[C@@H](O)[C@H]4O)cc3)CC2)cc1 [Compound 21]		> 1000	> 400		0
CC(C)(C)c1ccc(S(=O)(=O)NCc2ccc(C(=O)Nc3ccccc3)cc2)cc1 [Compound 42]	> 400	43		61	61
COC[C@H]1N[C@@H](c2ccc(NC(=O)CCCCCNC(=O)c3ccccc3)cc2)[C@H](OC)[C@@H]1OC [Compound 28]	> 400	603			3
O=C(CCCCCNC(=O)c1ccccc1)Nc1ccc([C@@H]2N[C@H](CO)[C@@H](O)[C@H]2O)cc1 [Compound 23]	> 400	363			5
COC[C@H]1N[C@@H](c2ccc(NC(=O)c3ccc(CNC(=O)c4ccccc4)cc3)cc2)[C@H](OC)[C@@H]1OC [Compound 30]	920	> 1000			0

Further lines, with some results ahead:

IC50 (MiaPaCa-2 cells [3]; [4]) [µM]	IC50 (recombinant human NAMPT) [µM]	IC50 (MiaPaCa-2 cells [3]; NI (footnote 2) = No inhibition at concentration < 100 μM) [µM]	Structure (SMILES)	intracellular NAD+ depletion (MiaPaCa-2 cells [1]) [%]	iNAD+ Depletion (%) (MiaPaCa-2 cells [2])
32	63		COC[C@H]1N[C@@H](c2ccc(NC(=O)c3ccc(CNS(=O)(=O)c4ccc(C(C)(C)C)cc4)cc3)cc2)[C@H](OC)[C@@H]1OC [Compound 29]	79	79
108	99.5		O=C(CCCC1CCN(C(=O)c2ccccc2)CC1)Nc1ccc([C@@H]2N[C@H](CO)[C@@H](O)[C@H]2O)cc1 [Compound 22]	77	77
91.4	> 1000		O=C(CCCC1CCN(C(=O)c2ccccc2)CC1)Nc1ccccc1 [Compound 35]		4
0.0024			O=C(/C=C/c1cccnc1)NCCCCC1CCN(C(=O)c2ccccc2)CC1 [FK866, reference compound]		90
698	283		O=C(NCc1ccc(C(=O)Nc2ccccc2)cc1)c1ccccc1 [Compound 43]		1
340	113		O=C(CCCCCNC(=O)c1ccccc1)Nc1ccccc1 [Compound 38]		0
539	> 1000		COC[C@H]1N[C@@H](c2ccc(NC(=O)CCCC3CCN(C(=O)c4ccccc4)CC3)cc2)[C@H](OC)[C@@H]1OC [Compound 27]		0
46.6	357		CC(C)(C)c1ccc(S(=O)(=O)N2CCC(CCCC(=O)Nc3ccccc3)CC2)cc1 [Compound 34]		6
37	139		COC[C@H]1N[C@@H](c2ccc(NC(=O)CCCC3CCN(S(=O)(=O)c4ccc(C(C)(C)C)cc4)CC3)cc2)[C@H](OC)[C@@H]1OC [Compound 26]		10

— article PMC10222582, “Iminosugar-Based Nicotinamide Phosphoribosyltransferase (NAMPT) Inhibitors as Potential Anti-Pancreatic Cancer Agents” (Pharmaceutics, 2023)
